Biological target: T1, GPR158 (Homo sapiens, UniProt Q5T848)
T1 sequence (Q5T848 24-1215): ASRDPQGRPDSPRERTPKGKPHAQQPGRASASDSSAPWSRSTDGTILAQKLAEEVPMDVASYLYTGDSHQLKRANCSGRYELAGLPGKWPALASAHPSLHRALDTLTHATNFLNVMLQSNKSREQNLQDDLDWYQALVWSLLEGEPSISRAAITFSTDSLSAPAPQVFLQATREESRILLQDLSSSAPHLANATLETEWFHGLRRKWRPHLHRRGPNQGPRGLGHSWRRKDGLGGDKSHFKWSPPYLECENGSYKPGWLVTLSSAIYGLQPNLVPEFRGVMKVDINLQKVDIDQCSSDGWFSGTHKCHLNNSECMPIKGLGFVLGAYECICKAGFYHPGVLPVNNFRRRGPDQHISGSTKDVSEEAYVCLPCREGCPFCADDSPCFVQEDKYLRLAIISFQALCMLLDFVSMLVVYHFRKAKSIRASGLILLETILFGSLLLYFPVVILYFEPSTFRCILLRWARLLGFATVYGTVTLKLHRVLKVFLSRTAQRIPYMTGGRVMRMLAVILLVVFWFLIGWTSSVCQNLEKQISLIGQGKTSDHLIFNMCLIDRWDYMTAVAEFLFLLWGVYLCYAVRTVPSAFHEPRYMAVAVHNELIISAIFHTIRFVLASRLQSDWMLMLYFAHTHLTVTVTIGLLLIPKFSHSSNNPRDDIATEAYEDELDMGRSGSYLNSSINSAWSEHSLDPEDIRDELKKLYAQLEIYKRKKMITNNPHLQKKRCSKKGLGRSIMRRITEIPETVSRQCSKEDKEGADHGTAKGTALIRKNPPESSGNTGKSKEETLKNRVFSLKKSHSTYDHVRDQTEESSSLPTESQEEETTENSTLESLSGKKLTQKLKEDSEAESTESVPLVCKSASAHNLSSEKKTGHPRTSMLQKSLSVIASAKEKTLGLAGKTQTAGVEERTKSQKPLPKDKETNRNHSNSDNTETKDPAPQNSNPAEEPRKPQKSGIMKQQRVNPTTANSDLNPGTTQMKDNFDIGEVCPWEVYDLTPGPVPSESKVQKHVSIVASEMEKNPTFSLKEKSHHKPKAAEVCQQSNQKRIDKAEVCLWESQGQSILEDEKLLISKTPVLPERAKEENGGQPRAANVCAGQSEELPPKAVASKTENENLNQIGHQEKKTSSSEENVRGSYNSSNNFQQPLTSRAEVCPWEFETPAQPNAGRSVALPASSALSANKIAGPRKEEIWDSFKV
Test: BRET cAMP assay in HEK293 cells expressing GPR158
Format: cell-based
Parameters: expressed in transfected cells; host or cells: HEK293FT
Description: FIGS. 2A-2C. Taurine signals through GPR158 to regulate cAMP. A) Time course of taurine (100 μM) effect on cAMP concentration in HEK293 cells. Cells were transfected with indicated constructs and cAMP was measured by the BRET assay. B) Quantification of taurine effect on maximal amplitude of the cAMP response. Data shown represent mean±s.e.m. determined from 3-9 independent experiments performed in triplicate. ****p<0.001 (one-way ANOVA). Columns with no fill (Ctrl), columns with angled-line fill (Taurine) C) Comparison of glycine and taurine effects on GPR158-mediated changes in cAMP response. Glycine or taurine was applied to HEK293 cells expressing either GPR158 alone or with RGS7/Gβ5 and the CAMP change was subtracted from the background response in control cells not expressing GPR158. Data shown represent mean±s.e.m. determined from 3 independent experiments performed in triplicate. *p<0.05, ***p<0.01, ns=p>0.05 (one-way ANOVA) Columns with no fill (Ctrl), columns with short-line fill (Glycine), columns with angled-line fill (Taurine).
HEK293FT cells were seeded in a white flat-bottom 96 well plate (Greiner Bio-One) at 50,000 cells per well and transiently transfected using Metafectene Pro with the manufacturer instruction. 24 h after transfection in DMEM complete medium supplemented of 0.1% of Matrigel (Corning), cells were washed with BRET buffer (Dulbecco's Phosphate-Buffered Saline (PBS) containing 0.5 mM MgCl2 and 0.1% glucose). The RLuc (Renilla luciferase) substrate, coelenterazine H (Research Products International Corp, IL), were diluted at 5 μM in BRET buffer and added to cells. BRET measurements were made in living cells using a microplate reader (PHERAstar FSX; BMG Labtech) equipped with two emission photomultiplier tubes. All measurements were performed at 37 °C.
HEK293FT cells or U87 MG cells (ATCC HTB-14) when indicated were co-transfected with the CAMP sensor Camyel and with untagged receptors (respectively: empty vector, GPR158). BRET ratio was determined by calculating the ratio of the light emitted by RLuc (475 nm with a 30 nm band path width) over the light emitted by the Venus (535 nm with a 30 nm band path width) in order to measure an increase of the signal when cAMP increase. ΔBRET was calculated by subtracting the ctrl cell BRET result from GPR158 expressing cells BRET result in order to get specifically the signal from GPR158 removing all the non-specific signal. Finally, netBRET was calculated by subtraction of the baseline value (basal BRET ratio) recorded prior to glycine stimulation from the experimental BRET signal values and the resulting difference (netBRET ratio).

type of agonism on GPR158: partial agonist
cAMP change (HEK293 cells expressing GPR158, taurine 100 μM): significant decrease in cAMP levels
cAMP change in parental cells (HEK293 cells without GPR158, taurine 100 μM): did not produce a response
cAMP change with co-expressed RGS7/Gβ5 (HEK293 cells, GPR158 + RGS7/Gβ5, taurine 100 μM): potentiated by co-expressing RGS7/Gβ5
GPR158-mediated suppression of cAMP compared with glycine (HEK293 cells, direct comparison): weaker than the effect of glycine
SMILES: NCCS(=O)(=O)O [taurine, 2-aminoethanesulfonic acid]
